Where two headings read alike, the source gives them in different places. Bridge positions count the residues as written; N and C are the ends. Peptide text beside a SMILES is read from it. I, II: the chains in the order shown. Bounds are passed on as bounds.

Assay [1] concerns the target T1, RXFP3 (Homo sapiens, UniProt Q9NSD7).
T1 construct: expressed in transfected cells; host or cells: CHO-K1 (ATCC), stably transfected
T1 sequence (Q9NSD7 1-469): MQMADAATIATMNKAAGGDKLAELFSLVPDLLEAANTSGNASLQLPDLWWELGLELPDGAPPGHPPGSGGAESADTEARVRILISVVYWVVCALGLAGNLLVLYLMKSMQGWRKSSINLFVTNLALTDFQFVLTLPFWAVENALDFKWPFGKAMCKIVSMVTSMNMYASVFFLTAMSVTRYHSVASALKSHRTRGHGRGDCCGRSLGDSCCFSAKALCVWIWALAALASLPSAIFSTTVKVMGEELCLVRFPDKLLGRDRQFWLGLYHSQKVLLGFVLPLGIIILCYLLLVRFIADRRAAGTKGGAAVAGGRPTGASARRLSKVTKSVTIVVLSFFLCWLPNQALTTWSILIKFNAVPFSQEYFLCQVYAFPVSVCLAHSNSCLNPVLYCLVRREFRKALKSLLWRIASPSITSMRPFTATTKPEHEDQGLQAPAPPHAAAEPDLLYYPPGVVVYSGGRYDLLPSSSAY
Nature of the assay: Competition binding in CHO-K1-RXFP3 cells (Eu-H3B1-22R). The procedure:
(§1) Chinese hamster ovary CHO-K1 cells (sourced from American Type Culture Collection (ATCC), Maryland, USA) stably transfected with RXFP3[33] or RXFP4[9] were plated out onto precoated poly-L-lysine 96-well view plates at a density of 50 000 cells per well. Medium was aspirated off and the cells were washed with phosphate-buffered saline (PBS) before competition binding assays were performed with 5 nM Eu-H3B1–22R[34] (RXFP3 ligand) or 5 nM Eu-DTPA-mINSL5[9] (RXFP4 ligand) as previously described. Competition binding curves were performed in triplicate and each experiment was performed independently at least three times. Fluorescent measurements were carried out on a BMG POLARstar plate reader (BMG Labtech, Melbourne, Australia. Pooled data are presented as mean ± S.E of specific binding and are fitted using one-site binding curve in GraphPad Prism version 8 (GraphPad Inc., San Diego, USA). Statistical analyses were conducted using one-way analysis of variance with uncorrected Fisher’s least significant difference (LSD) post-hoc analysis in GraphPad Prism version 8.

Assay [2] addresses T1, RXFP3. The assay is described as follows: cAMP agonist assay (inhibition of forskolin-induced cAMP, pCRE β-galactosidase reporter) in CHO-K1-RXFP3 cells. Type of assay: cell-based. The note with it: CHO-K1-RXFP3 cells, inhibition of 5 µM forskolin-induced cAMP, 6 hours; mean ± SEM, n in cell. As for the experimental part: (§2) The peptides were tested for their ability to inhibit forskolin induced cAMP activity in CHO-K1-RXFP3 or CHO-K1-RXFP4 cells transfected with a pCRE (cAMP Response Element) β-galactosidase reporter plasmid as previously described[9],[34]. For agonist assays cells were stimulated with forskolin (5 µM for RXFP3, 1 µM for RXFP4) plus or minus increasing concentrations of each peptide for 6 hours. For antagonist assays cells were stimulated with forskolin as in agonist assays plus increasing concentrations of each peptide for 10 minutes followed by stimulation with agonist at an ~EC80 concentration for a further 6 hours (10 nM Analogue 2 for RXFP3 and 16.6 nM Analogue 13 for RXFP4). Each peptide was tested in triplicate and each experiment was performed independently at least three times. Agonist data was expressed as the % Forskolin activity whereby 100% was defined as Forskolin alone and 0% as maximum agonist stimulation (1 µM Analogue 2 for RXFP3 and 1 µM Analogue 13 for RXFP4). […] Data were analysed and plotted using GraphPad PRISM 8 and are expressed as the mean ± SEM of the pooled data. Statistical analysis was conducted using one-way ANOVA with Uncorrected Fisher’s LSD post-hoc analysis in GraphPad Prism version 8.

The target of assay [3] is T1, RXFP3. Nature of the assay: cAMP antagonist assay against 10 nM analogue 2 in CHO-K1-RXFP3 cells. The note with it: for Emax: SEM, read-out: RXFP3 Emax (antagonist efficacy). Type of assay: cell-based. As for the experimental part:
as §2

Assay [4] has as its target T2, RXFP4 (Homo sapiens, UniProt Q8TDU9). Nature of the assay: Competition binding in CHO-K1-RXFP4 cells (Eu-DTPA-mINSL5). On the set-up: expressed in transfected cells; host or cells: CHO-K1 (ATCC), stably transfected. The procedure:
as §1

The target of assay [5] is T2, RXFP4. Nature of the assay: cAMP agonist assay (inhibition of forskolin-induced cAMP, pCRE β-galactosidase reporter) in CHO-K1-RXFP4 cells. Type of assay: cell-based. On the set-up: expressed in transfected cells; host or cells: CHO-K1 (ATCC), stably transfected. Conditions: CHO-K1-RXFP4 cells, inhibition of 1 µM forskolin-induced cAMP, 6 hours; mean ± SEM, n in cell. The procedure: as §2

In assay [6] the target is T2, RXFP4. Nature of the assay: cAMP antagonist assay against 16.6 nM analogue 13 in CHO-K1-RXFP4 cells. Type of assay: cell-based. Further details: expressed in transfected cells; host or cells: CHO-K1 (ATCC), stably transfected. Conditions: for Emax: SEM, read-out: RXFP4 Emax (antagonist efficacy). The procedure:
as §2

[7] abbreviates: CHO-K1 cells stably transfected with RXFP3, competition with 5 nM Eu-H3B1-22R, read-out: RXFP3 Binding Ki.
Setting [8] is: CHO-K1-RXFP3 cells, peptide 10 minutes, then 10 nM analogue 2 for 6 hours, 5 µM forskolin, mean ± SEM, read-out: RXFP3 Antagonist potency pIC50 (converted).
Where [9] appears, read: CHO-K1 cells stably transfected with RXFP4, competition with 5 nM Eu-DTPA-mINSL5, read-out: RXFP4 Binding Ki.
The mark [10] stands for this setting: CHO-K1-RXFP4 cells, block of 16.6 nM analogue 13, read-out: RXFP4 Antagonist potency IC50.

T2 sequence (Q8TDU9 whole entry): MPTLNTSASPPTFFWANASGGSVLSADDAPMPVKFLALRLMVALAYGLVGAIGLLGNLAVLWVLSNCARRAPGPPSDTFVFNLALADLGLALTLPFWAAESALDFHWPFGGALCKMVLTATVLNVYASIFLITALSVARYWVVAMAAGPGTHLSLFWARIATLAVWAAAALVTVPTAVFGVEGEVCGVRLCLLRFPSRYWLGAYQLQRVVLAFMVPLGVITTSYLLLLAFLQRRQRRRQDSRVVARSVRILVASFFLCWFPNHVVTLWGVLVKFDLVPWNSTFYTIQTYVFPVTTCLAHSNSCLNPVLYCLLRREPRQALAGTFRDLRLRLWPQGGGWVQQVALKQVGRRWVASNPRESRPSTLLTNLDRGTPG

For the compound `CC[C@H](C)[C@@H]1NC(=O)[C@H](Cc2ccccc2)NC(=O)[C@H](CCC(=O)O)NC(=O)[C@H](CCCNC(=N)N)NC(=O)CNC(=O)[C@@H](NC(=O)[C@H](CC(C)C)NC(=O)[C@H](CCCNC(=N)N)NC(=O)[C@@H](NC(=O)CNC(=O)[C@H](Cc2ccc(O)cc2)NC(=O)[C@@H]2CCCN2C(=O)[C@H](C)NC(=O)[C@H](C)NC(=O)[C@@H](N)CCCNC(=N)N)C(C)C)CSSC[C@H](N)C(=O)N[C@@H]([C@@H](C)O)C(=O)N[C@@H](CC(=O)O)C(=O)NCC(=O)N[C@@H](C)C(=O)N[C@@H](CO)C(=O)N[C@@H](CCSC)C(=O)N[C@@H](CCCCN)C(=O)N[C@@H](CC(=O)O)C(=O)N[C@@H](CC(C)C)C(=O)N[C@@H](CO)C(=O)N[C@@H](C)C(=O)N[C@@H](CC(C)C)C(=O)N[C@H](C(=O)O)CSSC[C@@H](C(=O)N[C@@H](CCCNC(=N)N)C(=O)O)NC(=O)[C@H]([C@@H](C)O)NC(=O)[C@H](Cc2ccccc2)NC(=O)[C@H]([C@@H](C)CC)NC(=O)[C@H](C(C)C)NC(=O)[C@H]([C@@H](C)O)NC(=O)[C@H](CCCNC(=N)N)NC1=O` [Analogue 17] (I: H-RAAPYGVRLCGREFIRTVIFTCR-OH / II: H-CTDGASMKDLSALC-OH; disulfide I:10-II:1, I:22-II:14), the Ki (usually the dissociation constant of the complex between target and ligand, obtained from inhibition or displacement) at RXFP3 [1] turned out to be 19.1 nM; on RXFP4 [4] it was 40.7 nM. The “RXFP3 Activity pEC50” value at RXFP3 [2] is on record as “No activity (3)”. The figures for the IC50 against RXFP3 [3] and against RXFP4 [6] were greater than 10000 nM and 34.7 nM, respectively. Also, the Emax (in general, the maximal effect, on the per cent scale that the assay sets) on RXFP3 [3] came to 34.8 ± 0.9%; at RXFP4 [6], 36 ± 10%. Besides, the “RXFP4 Activity pEC50” value on RXFP4 [5] was “Weak partial agonist (4)”.
In the case of `CC[C@H](C)[C@@H]1NC(=O)[C@H](Cc2ccccc2)NC(=O)[C@H](CCC(=O)O)NC(=O)[C@H](CC(C)C)NC(=O)CNC(=O)[C@@H](NC(=O)[C@H](CC(C)C)NC(=O)[C@H](CCCNC(=N)N)NC(=O)[C@@H](NC(=O)CNC(=O)[C@H](Cc2ccc(O)cc2)NC(=O)[C@@H]2CCCN2C(=O)[C@H](C)NC(=O)[C@H](C)NC(=O)[C@@H](N)CCCNC(=N)N)C(C)C)CSSC[C@H](N)C(=O)N[C@@H]([C@@H](C)O)C(=O)N[C@@H](CC(=O)O)C(=O)NCC(=O)N[C@@H](C)C(=O)N[C@@H](CO)C(=O)N[C@@H](CCSC)C(=O)N[C@@H](CCCCN)C(=O)N[C@@H](CC(=O)O)C(=O)N[C@@H](CC(C)C)C(=O)N[C@@H](CO)C(=O)N[C@@H](C)C(=O)N[C@@H](CC(C)C)C(=O)N[C@H](C(=O)O)CSSC[C@@H](C(=O)N[C@@H](CCCNC(=N)N)C(=O)O)NC(=O)[C@H]([C@@H](C)O)NC(=O)[C@H](Cc2ccccc2)NC(=O)[C@H]([C@@H](C)CC)NC(=O)[C@H](C(C)C)NC(=O)[C@H](C)NC(=O)[C@H](CCCNC(=N)N)NC1=O` [Analogue 18] (I: H-RAAPYGVRLCGLEFIRAVIFTCR-OH / II: H-CTDGASMKDLSALC-OH; disulfide I:10-II:1, I:22-II:14), the results for the Ki at RXFP3 [1] (setting [7]) and on RXFP4 [4] (setting [9]) were 25.7 nM and 14.8 nM, respectively. In addition, the “RXFP3 Activity pEC50” value on RXFP3 [2] is given as “No activity (3)”. In addition, the values for the IC50 on RXFP3 [3] (setting [8]) and on RXFP4 [6] (setting [10]) were greater than 10000 nM and 214 nM, respectively. Also, the Emax stood at 47 ± 7.3% at RXFP3 [3] and 56.2 ± 11.8% on RXFP4 [6]. At RXFP4 [5], the “RXFP4 Activity pEC50” value is on record as “Weak partial agonist (3)”.
For `CC[C@H](C)[C@@H]1NC(=O)[C@H](Cc2ccccc2)NC(=O)[C@H](CCC(=O)O)NC(=O)[C@H](CCCNC(=N)N)NC(=O)CNC(=O)[C@@H](NC(=O)[C@H](CC(C)C)NC(=O)[C@H](CCCNC(=N)N)NC(=O)[C@@H](NC(=O)CNC(=O)[C@H](Cc2ccc(O)cc2)NC(=O)[C@H](CCCCN)NC(=O)[C@H](C)NC(=O)[C@H](C)NC(=O)[C@@H](N)CCCNC(=N)N)C(C)C)CSSC[C@H](N)C(=O)N[C@@H]([C@@H](C)O)C(=O)N[C@@H](CC(=O)O)C(=O)NCC(=O)N[C@@H](C)C(=O)N[C@@H](CO)C(=O)N[C@@H](CCSC)C(=O)N[C@@H](CCCCN)C(=O)N[C@@H](CC(=O)O)C(=O)N[C@@H](CC(C)C)C(=O)N[C@@H](CO)C(=O)N[C@@H](C)C(=O)N[C@@H](CC(C)C)C(=O)N[C@H](C(=O)O)CSSC[C@@H](C(=O)N[C@@H](CCCNC(=N)N)C(=O)O)NC(=O)[C@H]([C@@H](C)O)NC(=O)[C@H](Cc2ccccc2)NC(=O)[C@H]([C@@H](C)CC)NC(=O)[C@H](C(C)C)NC(=O)[C@H](C)NC(=O)[C@H](CCCNC(=N)N)NC1=O` [Analogue 19] (I: H-RAAKYGVRLCGREFIRAVIFTCR-OH / II: H-CTDGASMKDLSALC-OH; disulfide I:10-II:1, I:22-II:14; N-terminus assumed), the inhibition constant (Ki) on RXFP3 [1] (setting [7]) stood at 7.94 nM; at RXFP4 [4] (setting [9]) it was 10.2 nM. The “RXFP3 Activity pEC50” value at RXFP3 [2] is listed as “No activity (3)”. The IC50 at RXFP3 [3] (setting [8]) was greater than 10000 nM; at RXFP4 [6] (setting [10]) it was 79.4 nM. The results for the Emax at RXFP3 [3] and on RXFP4 [6] were 76.3 ± 1.8% and 71.3 ± 4.8%, respectively. In addition, the “RXFP4 Activity pEC50” value on RXFP4 [5] is “Weak partial agonist (4)”.

For the origin of these results see publication PMC6882824, “Engineering of chimeric peptides as antagonists for the G protein-coupled receptor, RXFP4” (Scientific Reports, 2019).
